From US20200069691A1, “HETEROCYCLIC COMPOUNDS AS HIV PROTEASE INHIBITORS” (Merck Sharp & Dohme Corp., priority 2016, published 2020)

Molecular target: T1, wild-type HIV-1 protease (Human immunodeficiency virus type 1 group M subtype B, UniProt P04585)
T1 construct: Escherichia coli expressed wild-type HIV-1 protease protein
Assay: Assay for Inhibition of Microbial Expressed HIV Protease (peptide substrate cleavage, LC-MS/MS readout)
Type: biochemical
Conditions: E. coli expressed wild-type HIV-1 protease, mean of at least two independent experiments, read-out: HIV Pr Enzyme HIV1 PR IC50
Outline: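 E. coli-expressed wild-type HIV-1 protease ([…]) was preincubated with inhibitor 30 min at room temperature in pH 5.5 acetate buffer (100 mM NaCl, 0.1% BSA). Then 400 μM octapeptide substrate was added and reacted 1 h at 30 °C; inhibition came from LC-MS/MS product peak areas, mean of ≥2 experiments.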

N=C1NC(c2ccc(F)cc2)(c2cccc(Br)c2)C(=O)N1Cc1cccc(C(=O)N2Cc3[nH]nc(C(F)(F)F)c3C2)c1 (centres unmarked) [Compound 212, 5-(3-bromophenyl)-5-(4-fluorophenyl)-2-imino-3-(3-{[3-(trifluoromethyl)-4,6-dihydropyrrolo [3,4-c]pyrazol-5(1H)-yl]carbonyl}benzyl) imidazolidin-4-one]
IC50: 9.49 nM

N=C1NC(c2ccccc2)(c2ccc(Br)cc2)C(=O)N1Cc1cccc(C(=O)N2Cc3ccccc3C2)c1 (centres unmarked) [Compound 213, 5-(4-bromophenyl)-3-[3-(1,3-dihydro-2H-isoindol-2-ylcarbonyl)benzyl]-2-imino-5-phenylimidazolidin-4-one]
IC50: 9.77 nM

Cc1cc2c(cn1)CN(C(=O)c1cccc(CN3C(=N)NC(c4ccccc4)(c4ccccc4)C3=O)c1)C2 [Compound 214, 2-imino-3-{3-[(6-methyl-1,3-dihydro-2H-pyrrolo[3,4-c]pyridin-2-yl)carbonyl]benzyl}-5,5-diphenylimidazolidin-4-one]
IC50: 9.81 nM

N=C1NC(c2ccc(F)cc2)(c2ccc(F)cc2)C(=O)N1Cc1cccc(C(=O)N2Cc3cncnc3C2)c1 [Compound 215, 3-[3-(5,7-dihydro-6H-pyrrolo[3,4-d]pyrimidin-6-ylcarbonyl)benzyl]-5,5-bis(4-fluorophenyl)-2-iminoimidazolidin-4-one]
IC50: 23 nM

CC(C)CC[C@]1(c2ccccc2)NC(=N)N([C@H](C)c2cccc(C(=O)N3Cc4cncnc4C3)c2)C1=O [Compound 216, 3-{(1R)-1-[3-(5,7-dihydro-6H-pyrrolo[3,4-d]pyrimidin-6-ylcarbonyl)phenyl]ethyl}-2-imino-5-(3-methylbutyl)-5-phenylimidazolidin-4-one]
IC50: 10.2 nM

CC(C)CC[C@]1(c2ccccc2)NC(=N)N([C@H](C)c2cccc(C(=O)N3Cc4nccnc4C3)c2)C1=O [Compound 217, 3-{(1R)-1-[3-(5,7-dihydro-6H-pyrrolo[3,4-b]pyrazin-6-ylcarbonyl)phenyl]ethyl}-2-imino-5-(3-methylbutyl)-5-phenylimidazolidin-4-one]
IC50: 10.3 nM

CC(C)CCC1(c2ccccc2)NC(=N)N(Cc2cccc(C(=O)N3Cc4cccnc4C3)c2)C1=O (centres unmarked) [Compound 218, 3-[3-(5,7-dihydro-6H-pyrrolo[3,4-b]pyridin-6-ylcarbonyl)benzyl]-2-imino-5-(3-methylbutyl)-5-phenylimidazolidin-4-one]
IC50: 10.5 nM

N=C1NC(c2ccccc2)(c2ccccc2)C(=O)N1Cc1cccc(C(=O)N2Cc3nccnc3C2)c1 [Compound 219, 3-[3-(5,7-dihydro-6H-pyrrolo[3,4-b]pyrazin-6-ylcarbonyl)benzyl]-2-imino-5,5-diphenylimidazolidin-4-one]
IC50: 11 nM

CN(C)c1ncnc2c1CN(C(=O)c1cccc(CN3C(=N)NC(c4ccc(F)cc4)(c4ccc(F)cc4)C3=O)c1)C2 [Compound 220, 3-(3-{[4-(dimethylamino)-5,7-dihydro-6H-pyrrolo[3,4-d]pyrimidin-6-yl]carbonyl}benzyl)-5,5-bis(4-fluorophenyl)-2-iminoimidazolidin-4-one]
IC50: 11 nM

COC(=O)N1CCN(C(=O)c2cccc([C@@H](C)N3C(=N)N[C@](CCC(C)C)(c4ccccc4)C3=O)c2)CC1 [Compound 221, methyl 4-[(3-{(1R)-1-[2-imino-4-(3-methylbutyl)-5-oxo-4-phenyl-imidazolidin-1-yl]ethyl}phenyl)-carbonyl]piperazine-1-carboxylate]
IC50: 11.1 nM

CC(C)CC1(c2ccccc2)NC(=N)N(Cc2cccc(C(=O)N3Cc4cnc(C#N)nc4C3)c2)C1=O (centres unmarked) [Compound 222, 6-[(3-{[2-imino-4-(2-methylpropyl)-5-oxo-4-phenylimidazolidin-1-yl]methyl}phenyl)carbonyl]-6,7-dihydro-5H-pyrrolo[3,4-d]pyrimidine-2-carbonitrile]
IC50: 11.1 nM

CC(c1cccc(C(=O)N2Cc3ccccc3C2)c1)N1C(=N)NC(c2ccccc2)(c2ccccc2)C1=O (centres unmarked) [Compound 224, 3-{1-[3-(1,3-dihydro-2H-isoindol-2-ylcarbonyl)phenyl]ethyl}-2-imino-5,5-diphenylimidazolidin-4-one]
IC50: 11.9 nM

CCC(c1cccc(C(=O)N2Cc3ccccc3C2)c1)N1C(=N)NC(c2ccccc2)(c2ccccc2)C1=O (centres unmarked) [Compound 225, 3-{1-[3-(1,3-dihydro-2H-isoindol-2-ylcarbonyl)phenyl]propyl}-2-imino-5,5-diphenylimidazolidin-4-one]
IC50: 11.9 nM

Cc1cc2c(cn1)CN(C(=O)c1cccc(CN3C(=N)NC(c4ccc(F)cc4)(c4ccc(F)cc4)C3=O)c1)C2 [Compound 226, 5,5-bis(4-fluorophenyl)-2-imino-3-{3-[(6-methyl-1,3-dihydro-2H-pyrrolo[3,4-c]pyridin-2-yl)carbonyl]benzyl} imidazolidin-4-one]
IC50: 12.4 nM

CC(C)CCC1(c2ccccc2)NC(=N)N(Cc2cccc(C(=O)N3Cc4cncnc4C3)c2)C1=O (centres unmarked) [Compound 227, 3-[3-(5,7-dihydro-6H-pyrrolo[3,4-d]pyrimidin-6-ylcarbonyl)benzyl]-2-imino-5-(3-methylbutyl)-5-phenylimidazolidin-4-one]
IC50: 12.6 nM

C[C@H](c1cccc(C(=O)N2Cc3cncnc3C2)c1)N1C(=N)NC(c2ccccc2)(c2ccccc2)C1=O [Compound 228, 3-{(1R)-1-[3-(5,7-dihydro-6H-pyrrolo[3,4-d]pyrimidin-6-ylcarbonyl)phenyl]ethyl}-2-imino-5,5-diphenylimidazolidin-4-one]
IC50: 13.1 nM

CC(C)CCC1(c2ccc(F)cc2)NC(=N)N(Cc2cccc(C(=O)N3Cc4ccccc4C3)c2)C1=O (centres unmarked) [Compound 229, 3-[3-(1,3-dihydro-2H-isoindol-2-ylcarbonyl)benzyl]-5-(4-fluorophenyl)-2-imino-5-(3-methylbutyl)imidazolidin-4-one]
IC50: 13.1 nM

N=C1NC(c2ccccc2)(c2ccccc2)C(=O)N1Cc1cccc(C(=O)N2CCN(c3ncccn3)CC2)c1 [Compound 230, 2-imino-5,5-diphenyl-3-{3-[(4-pyrimidin-2-ylpiperazin-1-yl)carbonyl]benzyl} imidazolidin-4-one]
IC50: 13.1 nM

C[C@H](c1cccc(C(=O)N2Cc3ccccc3C2)c1)N1C(=N)NC(c2ccc(F)cc2)(c2ccc(F)cc2)C1=O [Compound 231, 3-{(1R)-1-[3-(1,3-dihydro-2H-isoindol-2-ylcarbonyl)phenyl]ethyl}-5,5-bis(4-fluorophenyl)-2-iminoimidazolidin-4-one]
IC50: 13.3 nM

N=C1NC(c2ccc(F)cc2)(c2ccc(F)cc2)C(=O)N1Cc1cccc(C(=O)N2Cc3ccc(F)cc3C2)c1 [Compound 232, 3-{3-[(5-fluoro-1,3-dihydro-2H-isoindol-2-yl)carbonyl]benzyl}-5,5-bis(4-fluorophenyl)-2-iminoimidazolidin-4-one]
IC50: 13.5 nM

N=C1NC(c2ccccc2)(c2ccccc2)C(=O)N1Cc1cccc(C(=O)N2Cc3ccc(C(F)(F)F)cc3C2)c1 [Compound 233, 2-imino-5,5-diphenyl-3-(3-{[5-(trifluoromethyl)-1,3-dihydro-2H-isoindol-2-yl]carbonyl}benzyl)-imidazolidin-4-one]
IC50: 14 nM

COC(=O)N1CCN(C(=O)c2cccc(CN3C(=N)NC(c4ccc(F)cc4)(c4cccc(-c5cccc(C#N)c5)c4)C3=O)c2)CC1 (centres unmarked) [Compound 234, methyl 4-[(3-{[4-(3′-cyanobiphenyl-3-yl)-4-(4-fluorophenyl)-2-imino-5-oxoimidazolidin-1-yl]methyl}phenyl)-carbonyl]piperazine-1-carboxylate]
IC50: 14.2 nM

CC(C)CC1(c2ccccc2)NC(=N)N(Cc2cccc(C(=O)N3Cc4nccnc4C3)c2)C1=O (centres unmarked) [Compound 235, 3-[3-(5,7-dihydro-6H-pyrrolo[3,4-b]pyrazin-6-ylcarbonyl)benzyl]-2-imino-5-(2-methylpropyl)-5-phenylimidazolidin-4-one]
IC50: 14.4 nM

CCCC1(c2ccccc2)NC(=N)N(Cc2cccc(C(=O)N3Cc4ccccc4C3)c2)C1=O (centres unmarked) [Compound 236, 3-[3-(1,3-dihydro-2H-isoindol-2-ylcarbonyl)benzyl]-2-imino-5-phenyl-5-propylimidazolidin-4-one]
IC50: 14.4 nM

CC(C)C[C@]1(c2ccccc2)NC(=N)N([C@H](C)c2cccc(C(=O)N3Cc4nccnc4C3)c2)C1=O [Compound 237, 3-{(1R)-1-[3-(5,7-dihydro-6H-pyrrolo[3,4-b]pyrazin-6-ylcarbonyl)phenyl]ethyl}-2-imino-5-(2-methylpropvl)-5-phenylimidazolidin-4-one]
IC50: 14.5 nM

N=C1NC(c2ccccc2)(c2ccccc2)C(=O)N1Cc1cccc(C(=O)N2CCN(c3ccccc3Cl)CC2)c1 [Compound 238, 3-(3-{[4-(2-chlorophenyl)piperazin-1-yl]carbonyl}benzyl)-2-imino-5,5-diphenylimidazolidin-4-one]
IC50: 15 nM

COC(=O)N1CCN(C(=O)c2cccc(CN3C(=N)NC(CCC(C)C)(c4ccc(F)cc4)C3=O)c2)CC1 (centres unmarked) [Compound 239, methyl 4-[(3-{[4-(4-fluorophenyl)-2-imino-4-(3-methylbutyl)-5-oxoimidazolidin-1-yl]methyl}phenyl)carbonyl] piperazine-1-carboxylate]
IC50: 15.1 nM

COC(=O)N1CCN(C(=O)c2cccc(CN3C(=N)NC(c4ccc(F)cc4)(c4cccc(Br)c4)C3=O)c2)CC1 (centres unmarked) [Compound 240, methyl 4-[(3-{[4-(3-bromophenyl)-4-(4-fluorophenyl)-2-imino-5-oxoimidazolidin-1-yl]methyl}phenyl)carbonyl] piperazine-1-carboxylate]
IC50: 15.2 nM

Cn1ncc2c1CN(C(=O)c1cccc(CN3C(=N)NC(c4ccccc4)(c4ccccc4)C3=O)c1)C2 [Compound 241, 2-imino-3-{3-[(1-methyl-4,6-dihydropyrrolo [3,4-c]pyrazol-5(1H)-yl)carbonyl]benzyl}-5,5-diphenylimidazolidin-4-one]
IC50: 15.6 nM
